Among the data in US20240228469A1, “PCSK9 INHIBITORS AND METHODS OF USE THEREOF” (AstraZeneca AB, priority 2022, published 2024) are IC50, Kd and EC50 values, retold here.

Each structure is given as a SMILES string.

Assay [1] concerns the target T1, potassium ion channel hERG (Homo sapiens, UniProt Q12809).
T1 construct: expressed in transfected cells; host or cells: Chinese hamster ovary K1 (CHO)
Briefly: Assay 5 hERG assay (patch clamp, CHO cells over-expressing hERG). The note with it: SyncroPatch 384PE, room temperature, geometric mean, read-out: Assay 5 (hERG Hu CHO if EPh CR-Syncro) GMean IC50. It counts as cell-based. In a few lines:
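hERG currents recorded by automated patch clamp at room temperature in CHO-K1 cells, 6-point cumulative concentrations. SyncroPatch runs used KF-based internal (pH 7.2) and NMDG-containing external solution (pH 7.4), 0.33% DMSO; QPatchII runs used 2% or 0.4% DMSO. Only wells meeting seal-resistance and current-size criteria kept.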
For orientation: hERG is a cardiac potassium channel; its block is linked to QT prolongation.

The target in assay [2] is GSK3β (Glycogen synthase kinase-3 beta) (Homo sapiens, UniProt P49841). Briefly: Assay 6 GSK3β assay (ThermoFisher Z-Lyte FRET). The class given is biochemical. The note with it: ATP Conc: 10 μM, geometric mean; read-out: Assay 6 (GSK3β FRET-Z-Lyte Cr) GMean IC50. In a few lines:
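Z-Lyte FRET: 0.22-0.92 ng kinase with 2 μM Ser/Thr 09 peptide in HEPES pH 7.5, MgCl2, EGTA, 60 min at room temperature, then 60 min development. Compounds in 1% DMSO, 10-point 3-fold series from 10 μM; sigmoidal dose-response fit.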

Assay [3] deals with T2, PCSK9 (Homo sapiens, UniProt Q8NBP7, G670E/V474I). In words: biochemical.
The target of assay [4] is PCSK9 (Homo sapiens, UniProt Q8NBP7). Briefly: Assay 2 Biophysical human PCSK9 assay (SPR, Biacore). The class given is binding. On the set-up: biotinylated human PCSK9 (31-692)-Avi-His6; His6 (C). The note with it: single-cycle kinetics, 30° C., geometric mean, read-out: Assay 2 (PCSK9 BIAcore DBA Cr) GMean Kd. As for the experimental part:
The SPR binding experiments were performed on a Biacore S200 optical biosensor unit at 30° C. A Series S Sensor Chip SA that is designed to bind biotinylated molecules for interaction analysis in Biacore systems was equilibrated at room temperature prior to use. The running buffer for protein tethering and subsequent ligand binding experiments was 10 mM HEPES pH 7.4, 150 mM NaCl, 0.05% (v/v) Tween 20 pH 7.4.
For the surface tethering of PCSK9, biotinylated human PCSK9 (31-692)-Avi-His6 at a concentration of 0.5 mg/mL was used. Prior to the surface tethering, the surface was exposed to a solution of 50 mM NaOH, 500 mM NaCl via 3 consecutive injections of this solution with a contact time of 60 s and a flowrate of 10 μL min^−1 to remove non-conjugated streptavidin. The PCSK9 protein was diluted to a concentration of 20 μg/mL using running buffer and injected with a contact time of 180-300 s and a flowrate of 10 μL min^−1 over a single flow channel (typically flow channel 2 or flow channel 4) with the aim to achieve protein capture levels of >5000 response units (RU). Remaining biotin binding sites were blocked via 2 consecutive injections of a 10 μM D-biotin solution in running buffer with a contact time of 60 s and a flowrate of 10 μL min^−1 over all flow-channels. Flow-channels 1 and 3 typically served as a reference surface throughout the subsequent binding experiments.
The binding experiments were all performed at a flow rate of 30 PL min^−1 and by employing the method of single-cycle kinetics. This approach involves the sequential injection of a compound concentration series without regeneration steps. A contact time between 90-150 s was selected, which was followed by a 40 min dissociation phase to allow for a proper estimation of the dissociation rate constant. Test compounds were delivered in DMSO at a concentration of 10 mM and a digital dispenser HP D300 was used to set up the compound concentration series using 6 concentrations. The tested concentrations have been 30, 100, 300, 1000, 3000 and 10000 nM. Prior to injecting any compound, the surfaces were equilibrated by injecting running buffer over them in three separate pulses. The data collection rate was set to 10 Hz.
The raw sensorgrams of the compound injections were first subjected to reference subtraction (subtracting the signal from flow channel 1 and/or 3 from the signal from channels 2 and/or 4 respectively) and then blank subtraction (subtracting the signal from injecting DMSO controls from the reference subtracted data). The resulting double-referenced sensorgrams were then fitted using a 1:1 binding interaction model using the manufactures software package to extract kinetic- and affinity data. Active compounds have been defined by creating a detectable binding signal at the highest compound concentration ([…]) of 3 RUs. Kinetic- and affinity data on active compounds are only provided for those compounds where the binding signal at the highest compound concentration ([…]) is 50% of the theoretical maximum binding signal for a 1:1 binding interaction (Rmax, typically between 15-20 RUs) in order to enable a proper fitting of the data.
Background: SPR reads the build-up and loss of mass on a sensor chip optically.

Assay [5] has as its target T2, PCSK9. Briefly: Assay 3 PCSK9 LDL-C uptake assay in HepG2 cells. It counts as cell-based. Also noted: TEV site (C); His6 (C); host or cells: added to HepG2 (ATCC #HB-8065). Particulars: 125 nM PCSK9, pHrodo Red-LDL, read-out: Assay 3 LDL uptake potency. The source says:
This assay measures for PCSK9 antagonist activity based on a test compound's capacity to restore LDL-C-uptake in HepG2 cells. The assay is based on exogenous PCSK9 and LDL-C complexed with a pH-sensitive dye. Outside the cells, at neutral pH, the pHrodo Red-LDL is dimly fluorescent but upon LDLR mediated endocytosis it fluoresces brightly. PCSK9 traffics the LDLR to intracellular degradation and reduces uptake of LDL-C. Inhibition of PCSK9 reduces LDLR degradation and the increased LDL-C uptake is quantified by fluorescence microscopy.
• Cell medium: MEM supplemented with 10% FBS, 1×NEAA and Sodium Pyruvate • Assay medium: OptiMem supplemented with penicillin/streptomycin • Cells: HepG2 (ATCC #HB-8065)
• 1. Cryopreserved HepG2 cells were thawed in assay medium and centrifuged for 5 min at 250 g. Supernatant was discarded and the cell pellet resuspended in cell medium and counted with a Nucleocounter. Cells were again centrifuged 5 min at 250 g and the pellet was resuspended to 500000 cells/mL in assay medium. • 2. 20 μL of above cell mix was dispensed into black μclear TC treated 384 well plates with Multidrop Combi and left at room temperature for 20 minutes. • 3. Plates were incubated at 37° C., 5% CO2 for 24 h
• 1. Test compounds were prepared in concentration response in DMSO with a half-log dilution factor in DMSO in Echo 384 LDV plates starting at 10 mM. • 2. 30 nL of above test compounds were dispensed with Echo 655 to cells for a top concentration of 10 μM • 3. 10 μL PCSK9 in assay medium was dispensed to cells with Multidrop Combi for 125 nM final concentration in the wells. • 4. Plates were incubated at 37° C., 5% CO2 for 24 h
• 1. 10 μL pHrodo Red-LDL in assay medium was dispensed to cells with Multidrop Combi for […] • 2. Plates were incubated at 37° C., 5% CO2 and imaged with the Incucyte S3 after 4 h and 24 h
Image data was processed using Incucyte 2021, a software to identify cells and red fluorescent intensity. Screener was used to further process data. Data was normalized as % effect of the signal between median values of the on-plate controls of DMSO and 100 nM Evolocumab according to the formula % effect=−100*(x−DMSO)/(Evolocumab−DMSO) where x equals the measured signal. Concentration response data of the normalized values were fitted using a four-parameter logistic fit.

Sequence of GSK3β (Glycogen synthase kinase-3 beta) (P49841 whole entry): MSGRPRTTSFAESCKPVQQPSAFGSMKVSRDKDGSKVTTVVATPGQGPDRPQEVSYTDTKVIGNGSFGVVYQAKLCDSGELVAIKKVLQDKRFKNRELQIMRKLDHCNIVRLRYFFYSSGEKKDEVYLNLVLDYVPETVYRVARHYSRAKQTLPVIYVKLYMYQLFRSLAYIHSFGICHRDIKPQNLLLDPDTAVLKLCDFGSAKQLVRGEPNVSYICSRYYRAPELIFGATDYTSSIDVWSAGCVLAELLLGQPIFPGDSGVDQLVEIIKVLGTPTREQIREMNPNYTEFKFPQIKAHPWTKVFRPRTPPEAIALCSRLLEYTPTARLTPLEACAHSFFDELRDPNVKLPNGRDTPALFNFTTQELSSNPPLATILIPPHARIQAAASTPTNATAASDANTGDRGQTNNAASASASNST
T1 sequence (Q12809 whole entry): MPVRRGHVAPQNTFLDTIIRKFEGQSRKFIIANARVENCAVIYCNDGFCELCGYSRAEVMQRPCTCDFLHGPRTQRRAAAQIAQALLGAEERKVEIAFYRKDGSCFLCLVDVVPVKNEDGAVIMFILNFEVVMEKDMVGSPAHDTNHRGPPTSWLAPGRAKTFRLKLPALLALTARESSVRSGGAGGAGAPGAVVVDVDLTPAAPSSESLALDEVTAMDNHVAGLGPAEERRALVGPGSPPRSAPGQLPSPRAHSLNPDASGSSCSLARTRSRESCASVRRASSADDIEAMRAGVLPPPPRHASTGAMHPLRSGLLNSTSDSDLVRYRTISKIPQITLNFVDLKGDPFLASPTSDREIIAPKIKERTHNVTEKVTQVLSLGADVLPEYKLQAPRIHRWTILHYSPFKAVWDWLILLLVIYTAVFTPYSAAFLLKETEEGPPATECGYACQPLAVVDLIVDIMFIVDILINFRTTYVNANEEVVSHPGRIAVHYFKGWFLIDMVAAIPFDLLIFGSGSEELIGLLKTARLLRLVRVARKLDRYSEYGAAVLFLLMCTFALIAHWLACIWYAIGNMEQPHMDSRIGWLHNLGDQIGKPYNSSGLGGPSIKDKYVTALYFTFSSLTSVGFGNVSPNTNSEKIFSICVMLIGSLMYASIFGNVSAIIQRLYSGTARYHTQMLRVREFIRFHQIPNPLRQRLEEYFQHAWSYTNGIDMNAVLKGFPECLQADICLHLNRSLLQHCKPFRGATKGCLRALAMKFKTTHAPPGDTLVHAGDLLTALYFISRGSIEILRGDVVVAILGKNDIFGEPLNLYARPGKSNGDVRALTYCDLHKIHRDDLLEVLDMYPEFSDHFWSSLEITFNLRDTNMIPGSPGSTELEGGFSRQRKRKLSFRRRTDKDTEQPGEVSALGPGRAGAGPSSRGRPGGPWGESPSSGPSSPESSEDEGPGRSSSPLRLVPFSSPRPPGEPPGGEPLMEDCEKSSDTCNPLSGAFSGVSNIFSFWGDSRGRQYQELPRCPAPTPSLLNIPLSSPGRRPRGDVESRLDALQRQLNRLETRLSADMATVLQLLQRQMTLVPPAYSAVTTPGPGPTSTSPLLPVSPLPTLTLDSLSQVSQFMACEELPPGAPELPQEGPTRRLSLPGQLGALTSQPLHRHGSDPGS
T2 sequence (Q8NBP7 with tags, fused parts or gaps V474I/G670E): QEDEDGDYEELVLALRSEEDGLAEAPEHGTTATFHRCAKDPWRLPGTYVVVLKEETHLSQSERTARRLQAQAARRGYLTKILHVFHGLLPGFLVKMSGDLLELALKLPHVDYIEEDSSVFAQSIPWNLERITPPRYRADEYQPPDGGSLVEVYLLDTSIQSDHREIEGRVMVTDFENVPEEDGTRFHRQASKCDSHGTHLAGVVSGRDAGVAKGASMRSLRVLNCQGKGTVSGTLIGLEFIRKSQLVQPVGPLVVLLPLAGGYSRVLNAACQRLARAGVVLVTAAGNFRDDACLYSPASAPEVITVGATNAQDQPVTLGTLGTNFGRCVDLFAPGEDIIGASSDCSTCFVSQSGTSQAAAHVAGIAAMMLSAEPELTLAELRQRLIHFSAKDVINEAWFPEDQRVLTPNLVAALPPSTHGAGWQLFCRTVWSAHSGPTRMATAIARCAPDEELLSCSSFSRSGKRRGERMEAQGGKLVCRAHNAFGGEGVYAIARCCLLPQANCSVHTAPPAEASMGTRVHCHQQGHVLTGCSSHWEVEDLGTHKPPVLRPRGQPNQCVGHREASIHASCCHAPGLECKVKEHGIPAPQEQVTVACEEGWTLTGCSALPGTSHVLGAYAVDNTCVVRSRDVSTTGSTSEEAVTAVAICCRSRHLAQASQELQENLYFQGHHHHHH
Sequence of PCSK9 (Homo sapiens, UniProt Q8NBP7) (Q8NBP7 31-692): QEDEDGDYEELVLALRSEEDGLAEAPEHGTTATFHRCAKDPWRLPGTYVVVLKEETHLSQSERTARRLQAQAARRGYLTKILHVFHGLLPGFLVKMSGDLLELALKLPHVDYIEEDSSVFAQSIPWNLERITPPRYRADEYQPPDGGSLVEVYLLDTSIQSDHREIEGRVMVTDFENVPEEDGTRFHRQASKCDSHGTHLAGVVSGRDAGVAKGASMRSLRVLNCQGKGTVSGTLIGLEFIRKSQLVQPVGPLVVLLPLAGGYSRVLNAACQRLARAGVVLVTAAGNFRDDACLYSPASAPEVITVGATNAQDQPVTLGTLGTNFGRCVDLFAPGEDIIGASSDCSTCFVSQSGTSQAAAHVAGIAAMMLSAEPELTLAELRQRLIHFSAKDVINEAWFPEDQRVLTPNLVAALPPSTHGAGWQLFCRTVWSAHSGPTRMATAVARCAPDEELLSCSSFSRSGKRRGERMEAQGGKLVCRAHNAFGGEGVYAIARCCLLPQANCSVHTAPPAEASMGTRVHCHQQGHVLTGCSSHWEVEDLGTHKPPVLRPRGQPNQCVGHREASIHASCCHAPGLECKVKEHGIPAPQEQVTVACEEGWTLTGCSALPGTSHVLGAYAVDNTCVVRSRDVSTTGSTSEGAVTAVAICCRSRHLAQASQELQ

`Cc1cnnc(N[C@H]2CC[C@H](Nc3ccc(-n4ccccc4=O)cn3)C2)n1` [Example 126, 6′-(((1S,3S)-3-((5-Methyl-1,2,4-triazin-3-yl)amino)cyclopentyl)amino)-2H-[1,3′-bipyridin]-2-one]: the figures for the IC50 (in assay [1]; in assay [2]; against PCSK9 [3]) were greater than 40 µM, greater than 10 µM and 744 nM, respectively. For the same compound, the Kd on PCSK9 [4] was 954 nM.
On the same counts, the results for `CN(C)C(=O)c1cnc(N[C@H]2CC[C@H](Nc3ccc(-n4ccccc4=O)cn3)C2)nn1` [Example 76, N,N-Dimethyl-3-(((1S,3S)-3-((2-oxo-2H-[1,3′-bipyridin]-6′-yl)amino)cyclopentyl)amino)-1,2,4-triazine-6-carboxamide] are greater than 40 µM, greater than 10 µM, 485 nM and 125 nM.
On to `COc1ccn(-c2ccc(N[C@H]3CC[C@H](Nc4ncc(C)nn4)C3)nc2)c(=O)c1` [Example 180, 4-Methoxy-6′-(((1S,3S)-3-((6-methyl-1,2,4-triazin-3-yl)amino)cyclopentyl)amino)-2H-[1,3′-bipyridin]-2-one], for which the IC50 in assay [1] was greater than 40.1 µM; in assay [2] it was greater than 10 µM; against PCSK9 [3] it was 6 nM. For the same compound, the EC50 on PCSK9 [5] was 300 nM.
On the same counts, the results for `Cc1cnc(N[C@H]2CC[C@H](Nc3ccc(-n4cccc(-c5c[nH]nn5)c4=O)cn3)C2)nn1` [Example 200, 6′-(((1S,3S)-3-((6-Methyl-1,2,4-triazin-3-yl)amino)cyclopentyl)amino)-3-(1H-1,2,3-triazol-4-yl)-2H-[1,3′-bipyridin]-2-one] are greater than 40.1 µM, greater than 10 µM, 2.5 nM and 100 nM.
On the same counts, the results for `Cc1cnc(N[C@H]2CC[C@H](Nc3ccc(-n4cccc(C)c4=O)cn3)C2)nn1` (racemic) [Example 173, rel-3-Methyl-6′-(((1 R,3R)-3-((6-methyl-1,2,4-triazin-3-yl)amino)cyclopentyl)amino)-2H-[1,3′-bipyridin]-2-one] are greater than 40.1 µM, 1.95 µM, 4.2 nM and 100 nM.
Regarding `Cc1cnc(N[C@H]2CC[C@H](Nc3ccc(-n4nccc(OC(F)F)c4=O)cn3)C2)nn1` [Example 281, 4-(Difluoromethoxy)-2-(6-(((1S,3S)-3-((6-methyl-1,2,4-triazin-3-yl)amino)cyclopentyl)amino)pyridin-3-yl)pyridazin-3(2H)-one], the IC50 was greater than 40.1 µM in assay [1], greater than 10 µM in assay [2] and 2.5 nM against PCSK9 [3]. For the same compound, at PCSK9 [5], the EC50 worked out at 300 nM.
On the same counts, the results for `Cc1cnc(N[C@H]2CC[C@H](Nc3ccc(-n4c(=O)n(C)c5cc(C#N)cnc54)cn3)C2)nn1` [Example 214, 1-Methyl-3-(6-(((1S,3S)-3-((6-methyl-1,2,4-triazin-3-yl)amino)cyclopentyl)amino)pyridin-3-yl)-2-oxo-2,3-dihydro-1H-imidazo[4,5-b]pyridine-6-carbonitrile] are greater than 40.1 µM, greater than 10 µM, 3.4 nM and 700 nM.
On the same counts, the results for `Cc1cnc(N[C@H]2CC[C@H](Nc3ccc(-n4cc(-c5cn[nH]c5)ccc4=O)cn3)C2)nn1` [Example 202, 6′-(((1S,3S)-3-((6-Methyl-1,2,4-triazin-3-yl)amino)cyclopentyl)amino)-5-(1H-pyrazol-4-yl)-2H-[1,3′-bipyridin]-2-one] are greater than 40.1 µM, 7.66 µM, 3.7 nM and 100 nM.
In the same order, the values of `Cc1cnc(N[C@H]2CC[C@H](Nc3ccc(-n4cccc(F)c4=O)cn3)C2)nn1` [Example 137, 3-Fluoro-6′-(((1S,3S)-3-((6-methyl-1,2,4-triazin-3-yl)amino)cyclopentyl)amino)-2H-[1,3′-bipyridin]-2-one] are greater than 40.1 µM, 3.52 µM, 10 nM and 700 nM.
Regarding `O=C(NC1COC1)c1cnc(N[C@H]2CC[C@H](Nc3ccc(-n4cccc(Cl)c4=O)cn3)C2)nn1` [Example 157, 3-(((1S,3S)-3-((3-Chloro-2-oxo-2H-[1,3′-bipyridin]-6′-yl)amino)cyclopentyl)amino)-N-(oxetan-3-yl)-1,2,4-triazine-6-carboxamide], the IC50 was greater than 40.1 µM in assay [1], 7.78 µM in assay [2] and 2.1 nM against PCSK9 [3]. Moreover, at PCSK9 [5], the EC50 was 100 nM.
In the same order, the values of `O=C(NC1COC1)c1cnc(N[C@H]2CC[C@H](Nc3ccc(-n4cccc(OC(F)(F)F)c4=O)cn3)C2)nn1` [Example 160, N-(Oxetan-3-yl)-3-(((1S,3S)-3-((2-oxo-3-(trifluoromethoxy)-2H-[1,3′-bipyridin]-6′-yl)amino)cyclopentyl)amino)-1,2,4-triazine-6-carboxamide] are greater than 40.1 µM, greater than 10 µM, 6.9 nM and 200 nM.

Usually IC50 stands for the concentration needed to halve the response being measured. One may read the Kd as the constant that tells how readily two partners part at equilibrium.
